≈ marks a conversion by molar mass, not a printed value.

One data set can be described thus: in vitro. The following applies: human.
In turn, `CC(C)c1ccc2c(c1)OC1(O)c3ccccc3/C(=N\N)C21O` (stereo not drawn) [Example 152, 10-Hydrazono-7-isopropyl-9b,10-dihydro-4bH-benzo[d]indeno[1,2-b]furan-4b,9b-diol] gave a CC50 of 10.5 µg/mL (≈ 33.9 µM).

In the case of `CC(C)c1cc(C(C)C)c2c(c1)C1(O)C(=O)c3c(N)cccc3C1(O)O2` (stereo not drawn) [Example 157, 1-Amino-4b,9b-dihydroxy-6,8-diisopropyl-4bH-benzo[d]indeno[1,2-b]furan-10(9bH)-one], the CC50 was found to be 28.5 µg/mL (≈ 80.6 µM).

Molecule `COc1ccc(NC(=O)NC23C(=O)c4c(N)cccc4C2(O)Oc2cc(C(C)C)ccc23)cc1` (stereo not drawn) [Example 162] returned a CC50 greater than 10 µg/mL.

In turn, `CCCCNC(=O)NC12C(=O)c3c(N)cccc3C1(O)Oc1cc(C(C)C)ccc12` (stereo not drawn) [Example 163, 1-(1-Amino-4b-hydroxy-7-isopropyl-10-oxo-9b,10-dihydro-4bH-indeno[1,2-b]benzofuran-9b-yl)-3-butylurea] had a CC50 greater than 10 µg/mL.

For `CC(C)c1ccc2c(c1)OC1(O)c3cccc(N)c3C(=O)C21NC(=O)Nc1ccc(F)cc1` (stereo not drawn) [Example 164, 1-(1-Amino-4b-hydroxy-7-isopropyl-10-oxo-9b,10-dihydro-4bH-indeno[1,2-b]benzofuran-9b-yl)-3-(4-fluorophenyl)urea], the CC50 was greater than 10 µg/mL.

`CC(C)c1ccc2c(c1)OC1(O)c3cccc(N)c3C(=O)C21NC(=O)NC(C)(C)C` (stereo not drawn) [Example 165] returned a CC50 greater than 10 µg/mL.

For the molecule `CC(=O)NC12C(=O)c3c(NC=O)cccc3C1(O)Oc1cc(C(C)C)ccc12` (stereo not drawn) [Example 167, N-(1-Formamido-4b-hydroxy-7-isopropyl-10-oxo-9b,10-dihydro-4bH-benzo[d]-indeno[1,2-b]furan-9b-yl)acetamide], the CC50 is greater than 10 µg/mL.

In the case of `CC(C)c1ccc2c(c1)OC1(O)c3cccc(N)c3C(=O)C21NS(C)(=O)=O` (stereo not drawn) [Example 168, N-(1-Amino-4b-hydroxy-7-isopropyl-10-oxo-9b,10-dihydro-4bH-benzo[d]indeno[1,2-b]furan-9b-yl)methanesulfonamide], the CC50 is greater than 10 µg/mL.

`CCOP(=O)(NC12C(=O)c3c(N)cccc3C1(O)Oc1cc(C(C)C)ccc12)OCC` (stereo not drawn) [Example 169, Diethyl (1-amino-4b-hydroxy-7-isopropyl-10-oxo-9b,10-dihydro-4bH-indeno[1,2-b]benzofuran-9b-yl)phosphoamidate]: the CC50 is greater than 10 µg/mL.

Molecule `CC(C)c1ccc2c(c1)OC1(O)c3cccc(N)c3C(=O)C21NC(=O)c1ccc(-c2ccccc2)cc1` (stereo not drawn) [Example 172] gave a CC50 greater than 10 µg/mL.

In the case of `CCNC(=O)NC12C(=O)c3c(N)cccc3C1(O)Oc1cc(C(C)C)ccc12` (stereo not drawn) [Example 173], the CC50 was greater than 10 µg/mL.

The same data set, now with this note: human, Picorana CC50.
`CNC(=O)OC12Oc3cc(C(C)C)ccc3C1(NC(C)=O)C(=O)c1ccccc12` (stereo not drawn) [Example 118, 9b-Acetamido-7-isopropyl-10-oxo-9b,10-dihydro-4bH-benzo[d]indeno[1,2-b]furan-4b-yl methylcarbamate] came in with a CC50 greater than 50 µg/mL.

In turn, `CC(=O)NC12Oc3cc(C(C)C)ccc3C1(NC(C)=O)C(=O)c1ccccc12` (stereo not drawn) [Example 119] showed a CC50 of 38.2 µg/mL (≈ 101 µM).

In turn, `CC(C)c1ccc2c(c1)OC1(OCc3ccccc3)c3ccccc3C(=O)C21O` (stereo not drawn) [Example 120, 4b-(Benzyloxy)-9b-hydroxy-7-isopropyl-4bH-indeno[1,2-b]benzofuran-10(9bH)-one] returned a CC50 of 8.16 µg/mL (≈ 21.1 µM).

As for `CC(=O)NC12C(=O)c3ccccc3C1(OC(=O)Oc1ccccc1)Oc1cc(C(C)C)ccc12` (stereo not drawn) [Example 121, Carbonic acid 9b-acetylamino-7-isopropyl-10-oxo-9b,10-dihydro-5-oxa-indeno[2,1-a]inden-4b-yl ester phenyl ester], the CC50 is greater than 50 µg/mL.

In the case of `CC(C)c1ccc2c(c1)OC1(OC(=S)Nc3ccccc3)c3ccccc3C(=O)C21N=[N+]=[N-]` (stereo not drawn) [Example 122, Phenyl-thiocarbamic acid O-(9b-azido-7-isopropyl-10-oxo-9b,10-dihydro-5-oxa-indeno[2,1-a]inden-4b-yl) ester], the CC50 was found to be 12 µg/mL (≈ 26.2 µM).

In turn, `CCC(=O)NC12Oc3cc(C(C)C)ccc3C1(NC(=O)CC)C(=O)c1ccccc12` (stereo not drawn) [Example 124] gave a CC50 greater than 50 µg/mL.

Turning to `CC(C)C(=O)NC12Oc3cc(C(C)C)ccc3C1(NC(=O)C(C)C)C(=O)c1ccccc12` (stereo not drawn) [Example 125], the CC50 came out at 45.5 µg/mL (≈ 105 µM).

In turn, `CC(C)c1ccc2c(c1)OC1(O)c3cccnc3C(=O)C21O` (stereo not drawn) [Example 126, 4b,9b-Dihydroxy-7-isopropyl-4bH-benzofuro[2′,3′:3,4]cyclopenta[1,2-b]pyridin-10(9bH)-one] returned a CC50 of 47.1 µg/mL (≈ 158 µM).

`CC(=O)OC12Oc3cc(C(C)C)ccc3C1(OC(C)=O)C(O)c1ccccc12` (stereo not drawn) [Example 127, 10-Hydroxy-7-isopropyl-9b,10-dihydro-4bH-indeno[1,2-b]benzofurane-4b,9b-diyl diacetate] had a CC50 of 37.6 µg/mL.

In turn, `CO/N=C1/c2ccccc2C2(NOC)Oc3cc(C(C)C)ccc3C12O` (stereo not drawn) [Example 128, 9b-Hydroxy-7-isopropyl-4b-(methoxyamino)-4bH-indeno[1,2-b]benzofuran-10(9bH)-one O-methyl oxime] returned a CC50 of 37.3 µg/mL (≈ 105 µM).

In turn, `C=C1c2ccccc2C2(OC)Oc3cc(C(C)C)ccc3C12O` (stereo not drawn) [Example 129, 7-Isopropyl-4b-methoxy-10-methylene-9b,10-dihydro-4bH-indeno[1,2-b]benzofuran-9b-ol] came in with a CC50 of 6.79 µg/mL (≈ 22 µM).

For `CO/N=C1/c2ccccc2C2(OC)Oc3cc(C(C)C)ccc3C12O` (stereo not drawn) [Example 130, 9b-Hydroxy-7-isopropyl-4b-methoxy-4bH-indeno[1,2-b]benzofuran-10(9bH)-one O-methyl oxime], the CC50 was greater than 50 µg/mL.

Turning to `CC(C)c1ccc2c(c1)OC1(O)c3cccc(NCc4ccccc4)c3C(=O)C21O` (stereo not drawn) [Example 132, 1-(Benzylamino)-4b,9b-dihydroxy-7-isopropyl-4bH-indeno[1,2-b]benzofuran-10(9bH)-one], the CC50 was found to be 0.72 µg/mL (≈ 1.79 µM).

Turning to `CCNc1cccc2c1C(=O)C1(O)c3ccc(C(C)C)cc3OC21O` (stereo not drawn) [Example 133, 1-(Ethylamino)-4b,9b-dihydroxy-7-isopropyl-4bH-indeno[1,2-b]benzofuran-10(9bH)-one], the CC50 turned out to be 1.58 µg/mL (≈ 4.66 µM).

`CC(C)c1ccc2c(c1)OC1(C)c3ccccc3C(=O)C21O` (stereo not drawn) [Example 134, 9b-Hydroxy-7-isopropyl-4b-methyl-4bH-indeno[1,2-b]benzofuran-10(9bH)-one] displayed a CC50 of 6.69 µg/mL (≈ 22.7 µM).

On to `CC(C)c1ccc2c(c1)OC1(O)c3ccccc3C(C)C21O` (stereo not drawn) [Example 136, 7-Isopropyl-10-methyl-9b,10-dihydro-4bH-indeno[1,2-b]benzofuran-4b,9b-diol], for which the CC50 turned out to be 7.8 µg/mL (≈ 26.3 µM).

Consider `CC(=O)NC12C(=O)c3c(Br)cccc3C1(O)Oc1cc(C(C)C)ccc12` (stereo not drawn) [Example 137, N-(1-Bromo-4b-hydroxy-7-isopropyl-10-oxo-9b,10-dihydro-4bH-indeno[1,2-b]benzofuran-9b-yl)acetamide], for which the CC50 came to 40 µg/mL (≈ 96 µM).

The molecule `COc1cc2c(cc1OC)C1(O)C(=O)c3ccccc3C1(O)N2C(=O)C(C)C` (stereo not drawn) [Example 138, 4b,9b-Dihydroxy-5-isobutyryl-7,8-dimethoxy-5,9b-dihydro-4bH-indeno[1,2-b]indol-10-one] gave a CC50 of 38.8 µg/mL (≈ 101 µM).

For `CC(C)c1ccc2c(c1)OC1(O)c3ccc(N4CCCCC4)cc3C(=O)C21O` (stereo not drawn) [Example 139, 4b,9b-Dihydroxy-7-isopropyl-2-piperidinyl-4bH-benzo[d]indeno[1,2-b]furan-10(9bH)-one], the CC50 worked out at 0.45 µg/mL (≈ 1.19 µM).

Turning to `CC(C)c1ccc2c(c1)OC1(O)c3ccc(N4CCOCC4)cc3C(=O)C21O` (stereo not drawn) [Example 140, 4b,9b-Dihydroxy-7-isopropyl-2-morpholinyl-4bH-benzo[d]indeno[1,2-b]furan-10(9bH)-one], the CC50 turned out to be 2.08 µg/mL (≈ 5.45 µM).

For `CC(C)c1ccc2c(c1)OC1(O)c3cccc(N4CCCCC4)c3C(=O)C21O` (stereo not drawn) [Example 141, 4b,9b-Dihydroxy-7-isopropyl-1-piperidinyl-4bH-benzo[d]indeno-[1,2-b]furan-10(9bH)-one], the CC50 is 3.47 µg/mL (≈ 9.14 µM).

Molecule `CC(C)c1ccc2c(c1)OC1(O)c3cccc(N4CCOCC4)c3C(=O)C21O` (stereo not drawn) [Example 142, 4b,9b-Dihydroxy-7-isopropyl-1-morpholinyl-4bH-benzo[d]indeno[1,2-b]furan-10(9bH)-one] had a CC50 of 18.7 µg/mL (≈ 49 µM).

In turn, `CC(C)C(=O)N1c2cc(C(C)C)ccc2C2(O)C(=O)c3ccccc3C12O` (stereo not drawn) [Example 145, 4b,9b-Dihydroxy-5-isobutyryl-7-isopropyl-5,9b-dihydro-4bH-indeno[1,2-b]indol-10-one] had a CC50 of 18.3 µg/mL (≈ 50.2 µM).

`CC(C)c1ccc2c(c1)OC1(O)c3ccc(N4CCC(O)CC4)cc3C(=O)C21O` (stereo not drawn) [Example 146, 4b,9b-Dihydroxy-7-isopropyl-2-(hydroxypiperidinyl)-4bH-benzo[d]indeno[1,2-b]furan-10(9bH)-one] came in with a CC50 of 1.53 µg/mL (≈ 3.87 µM).

`CC(C)c1ccc2c(c1)OC1(O)c3cccc(N4CCC(O)CC4)c3C(=O)C21O` (stereo not drawn) [Example 147, 4b,9b-Dihydroxy-1-(4-hydroxypiperidin-1-yl)-7-isopropyl-4bH-benzo[d]indeno[1,2-b]furan-10(9bH)-one] showed a CC50 of 32.9 µg/mL (≈ 83.1 µM).

Molecule `COc1ccc(CN2CCN(c3ccc4c(c3)C(=O)C3(O)c5ccc(C(C)C)cc5OC43O)CC2)cc1` (stereo not drawn) [Example 148, 4b,9b-Dihydroxy-7-isopropyl-2-(4-(4-methoxybenzyl)piperazin-1-yl)-4bH-benzo[d]indeno[1,2-b]furan-10(9bH)-one] displayed a CC50 of 1.72 µg/mL (≈ 3.44 µM).

With `COc1ccc(CN2CCN(c3cccc4c3C(=O)C3(O)c5ccc(C(C)C)cc5OC43O)CC2)cc1` (stereo not drawn) [Example 149, 4b,9b-Dihydroxy-7-isopropyl-1-(4-(4-methoxybenzyl)piperazin-1-yl)-4bH-benzo[d]indeno[1,2-b]furan-10(9bH)-one], the CC50 worked out at 8.48 µg/mL (≈ 16.9 µM).

Turning to `CC(C)c1ccc2c(c1)OC1(O)c3ccc(N(C)C)cc3C(=O)C21O` (stereo not drawn) [Example 150, 2-(Dimethylamino)-4b,9b-dihydroxy-7-isopropyl-4bH-benzo[d]indeno[1,2-b]-furan-10(9bH)-one], the CC50 is 1.32 µg/mL (≈ 3.89 µM).

Molecule `CC(C)c1ccc2c(c1)OC1(O)c3cccc(N(C)C)c3C(=O)C21O` (stereo not drawn) [Example 151, 1-(Dimethylamino)-4b,9b-dihydroxy-7-isopropyl-4bH-benzo[d]indeno[1,2-b]-furan-10(9bH)-one] yielded a CC50 of 1.52 µg/mL (≈ 4.48 µM).

Molecule `CC(C)c1ccc2c(c1)OC1(O)c3ccccc3/C(=N\N)C21O` (stereo not drawn) [Example 152, 10-Hydrazono-7-isopropyl-9b,10-dihydro-4bH-benzo[d]indeno[1,2-b]furan-4b,9b-diol] showed a CC50 of 0.9 µg/mL (≈ 2.9 µM).

For the molecule `CC(C)c1cc(C(C)C)c2c(c1)C1(O)C(=O)c3c(N)cccc3C1(O)O2` (stereo not drawn) [Example 157, 1-Amino-4b,9b-dihydroxy-6,8-diisopropyl-4bH-benzo[d]indeno[1,2-b]furan-10(9bH)-one], the CC50 was greater than 100 µg/mL.
